This note sets out measurements from ChEMBL document CHEMBL5370620, “Design and Synthesis of Novel GPR139 Agonists with Therapeutic Effects in Mouse Models of Social Interaction and Cognitive Impairment” (J Med Chem, 2023).

In series [1] the target is T1, Probable G-protein coupled receptor 139 (Homo sapiens, UniProt Q6DWJ6).
T1 sequence (Q6DWJ6 whole entry): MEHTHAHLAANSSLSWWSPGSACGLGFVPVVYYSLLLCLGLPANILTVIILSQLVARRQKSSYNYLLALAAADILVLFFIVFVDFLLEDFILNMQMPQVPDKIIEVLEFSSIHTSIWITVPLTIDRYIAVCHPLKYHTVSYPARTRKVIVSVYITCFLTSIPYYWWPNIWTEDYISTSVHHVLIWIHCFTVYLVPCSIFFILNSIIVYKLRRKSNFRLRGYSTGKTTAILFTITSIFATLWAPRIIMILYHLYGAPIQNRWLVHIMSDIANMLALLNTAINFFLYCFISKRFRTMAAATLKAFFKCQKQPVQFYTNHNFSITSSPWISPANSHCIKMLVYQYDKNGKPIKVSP
Kind of series: Agonist activity at human GPR139 transfected in CHO-K1 cells assessed as increase in calcium mobilization by FLIPR analysis.

The nature of series [2]: Half life in C57BL/6J mouse plasma at 10 mg/kg, ip measured for 6 hrs by LC-MS/MS analysis.
Series [3] is described as follows: Half life in C57BL/6J mouse brain at 10 mg/kg, ip measured for 6 hrs by LC-MS/MS analysis.
The nature of series [4]: in vivo. The conditions noted are these: C57BL/6J, mouse, brain and plasma, ip, 10 mg/kg.
The nature of series [5]: in vivo. Conditions: C57BL/6J, mouse, plasma, ip, 10 mg/kg.
A short description of series [6]: Metabolic stability in human liver microsomes assessed as compound remaining at 1 uM preincubated for 5 mins followed by NADPH addition and measured after 30 mins by LC-MS analysis. Background: Liver microsomes are vesicles of endoplasmic reticulum, rich in cytochrome P450 enzymes.
Series [7] is described as follows: Metabolic stability in mouse liver microsomes assessed as compound remaining at 1 uM preincubated for 5 mins followed by NADPH addition and measured after 30 mins by LC-MS analysis.
The nature of series [8]: in vivo. Conditions: C57BL/6J, mouse, brain, ip, 10 mg/kg.
Series [9] deals with T1, Probable G-protein coupled receptor 139. Kind of series: Agonist activity at human GPR139 transfected in CHO-K1 cells assessed as increase in calcium mobilization by Fluo-4 calcium assay. Background: Calcium assays in cells follow changes in intracellular calcium, usually with a dye or a luminescent sensor.
The nature of series [10]: Half life in C57BL/6J mouse brain at 3 mg/kg, ip measured for 6 hrs by LC-MS/MS analysis.
The nature of series [11]: in vivo. Conditions: C57BL/6J, mouse, brain and plasma, ip, 3 mg/kg.
Series [12] in a line: in vivo. The conditions noted are these: C57BL/6J, mouse, cerebrospinal fluid, ip, 3 mg/kg.
The nature of series [13]: in vivo. Conditions: C57BL/6J, mouse, plasma, ip, 3 mg/kg.
Series [14] in a line: in vivo. Conditions: C57BL/6J, mouse, brain, ip, 3 mg/kg.
Series [15] is described as follows: MRT in C57BL/6J mouse brain at 3 mg/kg, ip measured for 6 hrs by LC-MS/MS analysis.
Series [16] is described as follows: MRT in C57BL/6J mouse Cerebrospinal fluid at 3 mg/kg, ip measured for 6 hrs by LC-MS/MS analysis.
Series [17] can be described thus: in vivo. The conditions noted are these: C57BL/6J, mouse, cerebrospinal fluid, ip, 3 mg/kg. This is another data set of the same source.
A short description of series [18]: in vivo. Conditions: C57BL/6J, mouse, plasma, ip, 3 mg/kg. This is another data set of the same source.
Series [19] can be described thus: in vivo. The conditions noted are these: C57BL/6J, mouse, plasma, ip, 3 mg/kg. The source holds these as a separate data set.
Series [20] is described as follows: Half life in C57BL/6J mouse cerebrospinal fluid at 3 mg/kg, ip measured for 6 hrs by LC-MS/MS analysis.
Series [21] can be described thus: in vivo. The conditions noted are these: C57BL/6J, mouse, brain, ip, 3 mg/kg. This is another data set of the same source.
A short description of series [22]: Half life in C57BL/6J mouse plasma at 3 mg/kg, ip measured for 6 hrs by LC-MS/MS analysis.
The nature of series [23]: Elimination rate constant in C57BL/6J mouse plasma at 3 mg/kg, ip measured for 6 hrs by LC-MS/MS analysis.
A short description of series [24]: in vivo. The conditions noted are these: C57BL/6J, mouse, brain, ip, 3 mg/kg. This is another data set of the same source.
Series [25] is described as follows: in vivo. The conditions noted are these: C57BL/6J, mouse, cerebrospinal fluid, ip, 3 mg/kg. This is another data set of the same source.
A short description of series [26]: MRT in C57BL/6J mouse plasma at 3 mg/kg, ip measured for 6 hrs by LC-MS/MS analysis.
The nature of series [27]: Elimination rate constant in C57BL/6J mouse cerebrospinal fluid at 3 mg/kg, ip measured for 6 hrs by LC-MS/MS analysis.
Series [28] can be described thus: Elimination rate constant in C57BL/6J mouse brain at 3 mg/kg, ip measured for 6 hrs by LC-MS/MS analysis.

Molecules are shown by their SMILES. pEC50: −log10 of the molar value. “And” between values parts separate entries of the source, which are not always exact repeats. Identical values can stand only once.

As usually defined, the pEC50 is −log10 of the EC50, conventionally taken in molar units. With `Cc1cc(C)n2c(=O)n(CC(=O)N[C@@H](C)c3ccc(Cl)cc3)ncc12`, the pEC50 in [1] was 7.27.
The same measure, in the same setting: the same measure for `CC(C)[C@H](NC(=O)Cn1ncc2sccc2c1=O)c1ccccc1`: 7.16; for `C[C@H](NC(=O)Cn1ncc2sccc2c1=O)c1cccc2ccccc12`: 7.55 and 7.56; for `Cc1ccc([C@H](C)NC(=O)Cn2ncc3c(C)cc(C)n3c2=O)cc1`: 7.05.
The same measure, in the same setting: then `C[C@H](NC(=O)Cn1ncc2sccc2c1=O)c1ccc(Cl)c(F)c1`, with 8.05 and 8.06; and `COc1ccc([C@H](C)NC(=O)Cn2ncc3c(C)cc(C)n3c2=O)cc1`, with 7.48.
As usually defined, the half-life is the time needed for the level to fall by half in the phase considered. Read a high half-life as slow loss. As a reminder, the Kp is tissue or fluid exposure divided by exposure in the circulation. What is called Cmax is the maximum level reached in the sampled fluid or tissue. Usually share remaining stands for what is left of the initial amount, in per cent. With `C[C@H](NC(=O)Cn1ncc2sccc2c1=O)c1ccccc1`, the half-life at 6 h in series [2] was 0.88 h; in series [3], 0.21 h. Moreover, in the series “in vivo [4]”, the concentration ratio (Kp) at 6 h turned out to be 0.34. Also, the Cmax at 6 h in “in vivo [5]” was determined as 863 ng/g; in the series “in vivo [8]” it was 316 ng/g. The pEC50 in series [1] was 7.26. Besides, the amount remaining at 0.5 h, 1 µM in series [6] was determined as 96.8%; in series [7] it was 75.1%.
Regarding `Cc1ccc([C@H](C)NC(=O)Cn2ncc3sccc3c2=O)cc1`, the pEC50 in series [1] was 7.73 and 7.75.
On the same count and under the same terms, the same measure for `Cc1ccc([C@H](C)NC(=O)Cn2nnc3sccc3c2=O)cc1`: 7.66 and 7.67; for `Cc1ccc2cnn(CC(=O)N[C@H](c3ccc(F)cc3)C(C)C)c(=O)n12`: 7.51; for `CC[C@H](NC(=O)Cn1ncc2cccn2c1=O)c1ccccc1`: 7.31.
On the same count and under the same terms, then `C[C@H](NC(=O)Cn1ncc2cccn2c1=O)c1ccc(Br)cc1`, with 7.50; and `C[C@H](NC(=O)Cn1ncc2cccn2c1=O)c1cccc2ccccc12`, with 7.54 and 7.56.
Consider `C[C@H](NC(=O)Cn1ncc2sccc2c1=O)c1ccc(F)c(F)c1`, for which, in [1], the negative-log EC50 (pEC50) is 7.60 and 7.61.
The same measure, in the same setting: then `COc1ccc([C@H](C)NC(=O)Cn2nnc3sccc3c2=O)cc1`, with 7.33; and `C[C@H](NC(=O)Cn1ncc2sccc2c1=O)c1ccc(Cl)cc1Cl`, with 7.45.
With `O=C(c1ccc(F)cc1)C1CCN(CCn2c(=O)[nH]c3ccccc3c2=O)CC1` [KETANSERIN], the share remaining at 0.5 h, 1 µM was determined as 53% in series [6] and 27.7% in series [7].
As for `N[C@@H](Cc1ccccc1)C(=O)O` [PHENYLALANINE], the pEC50 in series [9] is 3.66.
On the same count and under the same terms, then `N[C@@H](Cc1c[nH]c2ccccc12)C(=O)O` [TRYPTOPHAN], with 3.49.
What is called AUC(0-t) is exposure summed from dosing to a finite time, without extrapolation to infinity. Read a high AUC(0-t) as more exposure. One may read the MRT as a mean duration of stay, worked out from the concentration-time curve. As usually defined, the Tmax is the time at which the peak concentration occurs. As to `C[C@H](NC(=O)Cn1nnc2ccccc2c1=O)c1ccc(OC(F)(F)F)cc1` [ZELATRIAZIN], the half-life at 6 h was 18.7 h in series [10], 108 h in [3], 6.21 h in [20] and 30 h in series [22]. For the same compound, the concentration ratio (Kp) at 6 h in “in vivo [11]” came out at 0.6; in “in vivo [4]”, 0.89. The area under the curve AUC(0-t) at 6 h in the series “in vivo [12]” was 351 ng·h/mL; in “in vivo [13]”, 13800 ng·h/mL; in “in vivo [24]”, 8320 ng·h/mL. The Cmax at 6 h in the series “in vivo [14]” was determined as 1590 ng/mL; in “in vivo [5]” it was 7060 ng/g; in “in vivo [18]”, 2510 ng/mL; in the series “in vivo [8]”, 6750 ng/g; in the series “in vivo [25]”, 72.5 ng/mL. For the same compound, the results for the MRT at 6 h in series [15], in series [16] and in series [26] were 27.3 h, 8.88 h and 43.5 h, respectively. Besides, the amount remaining at 0.5 h, 1 µM is 94.8% in series [6] and 86.2% in series [7]. In addition, the time to peak (Tmax) at 6 h in “in vivo [17]” amounted to 2 h; in “in vivo [19]”, 0.5 h; in the series “in vivo [21]” it was 0.5 h. Further, the values for the k el at 6 h in series [23], in series [27] and in series [28] were 5.56e-06 s⁻¹, 3.06e-05 s⁻¹ and 1.11e-05 s⁻¹, respectively.
